These results are taken from US20100104534A1, “HYDRAZIDO-PEPTIDES AS INHIBITORS OF HCV NS3-PROTEASE” (priority 2007, published 2010).

SMILES strings stand for the structures.

In this test the test system is replicon. Description: Replicon assay. The format is cell-based.
One may read the IC50 as the point on the concentration scale where inhibition reaches its midpoint. Low readings indicate greater potency in that assay, high ones weaker potency in that assay. Compound `CCCN(NC(=O)[C@@H]1[C@@H]2[C@H](CN1C(=O)[C@@H](NC(=O)NC1(CS(=O)(=O)C(C)(C)C)CCCCC1)C1(C)CCCCC1)C2(C)C)C(=O)N[C@@H](C)c1ccccc1` [Compound 1] had an IC50 of 500 to 3000 nM.
Turning to `CCCN(NC(=O)[C@@H]1[C@@H]2[C@H](CN1C(=O)[C@@H](NC(=O)N[C@H](CN(C)S(C)(=O)=O)C(C)(C)C)C(C)(C)C)C2(C)C)C(=O)N[C@@H](C)c1ccccc1` [Compound 2], the IC50 is at most 500 nM.
With `CCCN(NC(=O)[C@@H]1[C@@H]2[C@H](CN1C(=O)[C@@H](NC(=O)N[C@H](CN1C(=O)CC(C)(C)CC1=O)C(C)(C)C)C(C)(C)C)C2(C)C)C(=O)N[C@@H](C)c1ccccc1` [Compound 3] the figure was at most 500 nM; with `CCCN(NC(=O)[C@@H]1[C@@H]2[C@H](CN1C(=O)[C@@H](NC(=O)N[C@H](CN1C(=O)C3CCC(C3)C1=O)C(C)(C)C)C(C)(C)C)C2(C)C)C(=O)N[C@@H](C)c1ccccc1` [Compound 5], at most 500 nM.
Compound `C[C@H](NC(=O)N(CC1CC1)NC(=O)[C@@H]1[C@@H]2[C@H](CN1C(=O)[C@@H](NC(=O)N[C@H](CN1C(=O)C3CCC(C3)C1=O)C(C)(C)C)C(C)(C)C)C2(C)C)c1ccccc1` [Compound 6] registered an IC50 of 500 to 3000 nM.
